Reference: the supplement of paper PMC10307832

Tests used:
Experiment in all cases: relative viability (nuclei count vs DMSO), 5 days (fraction); higher = more cells survive
MK-2206 + Trametinib = compound: NC1(c2ccc(-c3nc4ccn5c(=O)[nH]nc5c4cc3-c3ccccc3)cc2)CCC1 [MK-2206] + CC(=O)Nc1cccc(-n2c(=O)n(C3CC3)c(=O)c3c(Nc4ccc(I)cc4F)n(C)c(=O)c(C)c32)c1 [Trametinib] (partner 0.02 µM)
Method in brief: (§1)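 After 5 days of treatment, lung cancer cells in 1536-well plates were fixed and stained in a single step (final 0.05% Triton X-100, 1% formaldehyde, 1 ug/ml Hoechst) and their nuclei counted on 4× images. Treatment had been applied by pin tool the day after seeding as one drug alone or as a fixed anchor-drug dose with five library-drug doses (not always all listed) in √10 steps. Relative viability is the nuclei count of treated wells divided by that of vehicle wells, and values are medians of duplicate plates.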

MK-2206 + Dasatinib = compound: NC1(c2ccc(-c3nc4ccn5c(=O)[nH]nc5c4cc3-c3ccccc3)cc2)CCC1 [MK-2206] + Cc1nc(Nc2ncc(C(=O)Nc3c(C)cccc3Cl)s2)cc(N2CCN(CCO)CC2)n1 [Dasatinib] (partner 0.075 µM)
Method in brief: as §1

MK-2206 + Olaparib = compound: NC1(c2ccc(-c3nc4ccn5c(=O)[nH]nc5c4cc3-c3ccccc3)cc2)CCC1 [MK-2206] + O=C(c1cc(Cc2n[nH]c(=O)c3ccccc23)ccc1F)N1CCN(C(=O)C2CC2)CC1 [Olaparib] (partner 8 µM)
Method in brief: as §1

Pictilisib + Crizotinib = compound: CS(=O)(=O)N1CCN(Cc2cc3nc(-c4cccc5[nH]ncc45)nc(N4CCOCC4)c3s2)CC1 [Pictilisib] + C[C@@H](Oc1cc(-c2cnn(C3CCNCC3)c2)cnc1N)c1c(Cl)ccc(F)c1Cl [Crizotinib] (partner 1 µM)
Method in brief: as §1

MK-2206 + AZD7762 = compound: NC1(c2ccc(-c3nc4ccn5c(=O)[nH]nc5c4cc3-c3ccccc3)cc2)CCC1 [MK-2206] + NC(=O)Nc1cc(-c2cccc(F)c2)sc1C(=O)N[C@H]1CCCNC1 [AZD7762] (partner 0.2 µM)
Method in brief: as §1

| Cell Line | relative viability (MK-2206 + Trametinib; first compound 0.01 µM) | relative viability (MK-2206 + Trametinib; first compound 0.03162 µM) | relative viability (MK-2206 + Trametinib; first compound 0.3162 µM) | relative viability (MK-2206 + Trametinib; first compound 1 µM) | relative viability (MK-2206 + Dasatinib; first compound 0.01 µM) | relative viability (MK-2206 + Dasatinib; first compound 0.03162 µM) | relative viability (MK-2206 + Dasatinib; first compound 0.3162 µM) | relative viability (MK-2206 + Dasatinib; first compound 1 µM) | relative viability (MK-2206 + Olaparib; first compound 0.01 µM) | relative viability (MK-2206 + Olaparib; first compound 0.03162 µM) | relative viability (MK-2206 + Olaparib; first compound 0.3162 µM) | relative viability (MK-2206 + Olaparib; first compound 1 µM) | relative viability (Pictilisib + Crizotinib; first compound 0.02 µM) | relative viability (Pictilisib + Crizotinib; first compound 0.06325 µM) | relative viability (Pictilisib + Crizotinib; first compound 0.6325 µM) | relative viability (Pictilisib + Crizotinib; first compound 2 µM) | relative viability (MK-2206 + AZD7762; first compound 0.01 µM) | relative viability (MK-2206 + AZD7762; first compound 0.03162 µM) | relative viability (MK-2206 + AZD7762; first compound 0.3162 µM) | relative viability (MK-2206 + AZD7762; first compound 1 µM) |
| --- | --- | --- | --- | --- | --- | --- | --- | --- | --- | --- | --- | --- | --- | --- | --- | --- | --- | --- | --- | --- |
| 201T | 0.688 | 0.753 | 0.743 | 0.724 | 0.623 | 0.581 | 0.553 | 0.525 | 0.825 | 0.857 | 0.858 | 0.856 | 1.04 | 1.04 | 1.03 | 0.788 | 0.663 | 0.431 | 0.649 | 0.599 |
| A549 |  |  |  |  |  |  |  |  | 0.389 | 0.439 | 0.333 | 0.125 | 0.694 | 0.729 | 0.436 | 0.199 |  |  |  |  |
| A-427 | 0.819 | 0.748 | 0.666 | 0.62 | 0.698 | 0.735 | 0.698 | 0.596 | 0.724 | 0.704 | 0.78 | 0.699 | 0.979 | 0.829 | 0.908 | 0.603 | 0.751 | 0.596 | 0.598 | 0.601 |
| ABC-1 |  |  |  |  | 0.499 | 0.534 | 0.388 | 0.399 | 0.898 | 0.841 | 1.1 | 1.08 | 0.96 | 1.2 | 1.2 | 0.507 | 0.795 | 0.787 | 0.85 | 0.814 |
| BEN | 1.17 | 1.2 | 1.23 | 1.05 | 0.265 | 0.332 | 0.321 | 0.362 | 1.06 | 1.2 | 1.14 | 1.02 | 0.8 | 1.07 | 0.817 | 0.58 | 0.729 | 0.621 | 0.713 | 0.601 |
| CAL-12T | 0.406 | 0.307 | 0.307 | 0.313 | 0.486 | 0.504 | 0.355 | 0.345 | 0.81 | 0.666 | 0.703 | 0.714 | 0.615 | 0.893 | 0.704 | 0.471 | 0.617 | 0.455 | 0.716 | 0.664 |
| COR-L23 | 0.547 | 0.558 | 0.522 | 0.476 | 0.452 | 0.527 | 0.494 | 0.536 | 0.32 | 0.31 | 0.297 | 0.328 | 0.584 | 0.75 | 0.668 | 0.594 |  |  |  |  |
| COR-L 105 | 0.451 | 0.439 | 0.381 | 0.433 | 0.411 | 0.409 | 0.305 | 0.289 | 0.774 | 0.7 | 0.57 | 0.749 | 0.814 | 0.913 | 0.988 | 0.418 |  |  |  |  |
| Calu-6 |  |  |  |  |  |  |  |  |  | 0.592 | 0.653 | 0.614 | 0.751 | 0.969 | 0.728 | 0.582 |  |  |  |  |
| ChaGo-K-1 | 0.894 | 0.867 | 0.881 | 0.904 | 0.61 | 0.721 | 0.55 | 0.447 | 0.404 | 0.422 | 0.413 | 0.429 | 1.17 | 1.21 | 1.08 | 0.947 | 0.875 | 0.796 | 0.858 | 0.93 |
| EBC-1 |  |  |  |  |  |  |  |  | 0.362 | 0.685 | 0.484 | 0.175 | 0.205 | 0.211 | 0.213 | 0.175 |  |  |  |  |
| EKVX | 0.326 | 0.398 | 0.275 | 0.289 | 0.73 | 0.522 | 0.536 | 0.569 | 0.866 | 0.777 | 0.745 | 0.67 | 0.898 | 1.15 | 0.801 | 0.493 | 0.738 | 0.886 | 0.751 | 0.704 |
| EMC-BAC-2 | 0.863 | 0.799 | 0.78 | 0.673 | 0.266 | 0.334 | 0.335 | 0.312 | 0.438 | 0.462 | 0.451 | 0.419 | 0.779 | 0.811 | 0.691 | 0.601 | 1.06 | 1.17 | 1.02 | 0.852 |
| EPLC-272H | 0.266 | 0.307 | 0.298 | 0.312 | 0.486 | 0.333 | 0.256 | 0.306 | 0.855 | 0.673 | 0.796 | 0.527 | 0.995 | 0.993 | 0.702 | 0.72 | 0.23 | 0.185 | 0.202 | 0.175 |
| H3255 | 0.523 | 0.618 | 0.493 | 0.502 | 0.347 | 0.344 | 0.288 | 0.284 | 0.539 | 0.58 | 0.538 | 0.518 | 0.854 | 0.907 | 0.803 | 0.555 | 0.865 | 0.883 | 0.903 | 0.829 |
| HARA | 0.63 | 0.553 | 0.677 | 0.788 | 0.321 | 0.302 | 0.329 | 0.227 | 0.842 | 0.779 | 0.758 | 0.625 | 1.05 | 1.15 | 0.972 | 0.722 | 0.0277 | 0.264 | 0.179 | 0.4 |
| HCC-15 | 0.362 | 0.387 | 0.309 | 0.295 | 0.578 | 0.643 | 0.442 | 0.422 | 0.722 | 0.757 | 0.625 | 0.692 | 0.791 | 0.926 | 0.761 | 0.583 | 1.01 | 1.24 | 1.24 | 1.23 |
| HCC-44 | 0.927 | 1.02 | 1.11 | 1.04 |  |  |  |  | 1.06 | 1 | 1.04 | 0.97 | 0.781 | 0.783 | 0.882 | 0.455 | 0.961 | 0.98 | 1.04 | 1.02 |
